Test results reported in ChEMBL document CHEMBL1201862, “PubChem BioAssay data set” (2004).
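Where inhibition never reached the appropriate level, the endpoint shown equals the highest concentration tested. Otherwise, values were interpolated linearly from a five-concentration, 48-hour dose response in 96-well plates. At the GI50, growth is halved.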 Activity calls are given as the source filed them. Rule as the data show it: active = GI50 up to about 1.1 µM and inactive = higher.

Legend:
Test in all cases: growth of human tumour cells (NCI), 48 h
OVCAR-3 = test system: OVCAR-3
UACC-257 = test system: UACC-257
SK-MEL-28 = test system: SK-MEL-28
SF-295 = test system: SF-295
DU-145 = test system: DU-145
TK-10 = test system: TK-10
CAKI-1 = test system: CAKI-1
SW-620 = test system: SW-620
HOP-62 = test system: HOP-62
MCF7 = test system: MCF7
U-251 = test system: U-251
786-0 = test system: 786-0
KM12 = test system: KM12
OVCAR-4 = test system: OVCAR-4
SK-OV-3 = test system: SK-OV-3
MOLT-4 = test system: MOLT-4
HOP-92 = test system: HOP-92
M14 = test system: M14
SNB-75 = test system: SNB-75
HCC 2998 = test system: HCC 2998

Compound	GI50 (OVCAR-3)	GI50 (UACC-257)	GI50 (SK-MEL-28)	GI50 (SF-295)	GI50 (DU-145)	GI50 (TK-10)	GI50 (CAKI-1)	GI50 (SW-620)	GI50 (HOP-62)	GI50 (MCF7)	GI50 (U-251)	GI50 (786-0)	GI50 (KM12)	GI50 (OVCAR-4)	GI50 (SK-OV-3)	GI50 (MOLT-4)	GI50 (HOP-92)	GI50 (M14)	GI50 (SNB-75)	GI50 (HCC 2998)
C[N+]1(C)CCc2cc(O)c(O)cc2C1Cc1ccc(O)c(O)c1 (stereo unspecified)	69 µM (inactive)	31.2 µM (inactive)	99.8 µM (inactive)	> 100 µM (inactive)	> 100 µM (inactive)	94.8 µM (inactive)	50.9 µM (inactive)	28.4 µM (inactive)	> 100 µM (inactive)	19.8 µM (inactive)	> 100 µM (inactive)	40.6 µM (inactive)	> 100 µM (inactive)	22.1 µM (inactive)	> 100 µM (inactive)	23 µM (inactive)	27.1 µM (inactive)	92.7 µM (inactive)	–	–
CN(C)c1ccc(/C=N/c2nc3cc4sc(/N=C/c5ccc(N(C)C)cc5)nc4cc3s2)cc1	36.9 µM (inactive)	> 100 µM (inactive)	> 100 µM (inactive)	> 100 µM (inactive)	8.22 µM (inactive)	80.7 µM (inactive)	21.3 µM (inactive)	33.9 µM (inactive)	55.7 µM (inactive)	12.6 µM (inactive)	50.5 µM (inactive)	49.7 µM (inactive)	46.7 µM (inactive)	> 100 µM (inactive)	41.8 µM (inactive)	12.9 µM (inactive)	> 100 µM (inactive)	> 100 µM (inactive)	63.2 µM (inactive)	–
O=C(Nc1sccc1S(=O)(=O)c1ccc(Cl)cc1)c1ccccc1	> 100 µM (inactive)	85.1 µM (inactive)	> 100 µM (inactive)	> 100 µM (inactive)	> 100 µM (inactive)	40.1 µM (inactive)	> 100 µM (inactive)	> 100 µM (inactive)	87.9 µM (inactive)	> 100 µM (inactive)	> 100 µM (inactive)	> 100 µM (inactive)	> 100 µM (inactive)	45 µM (inactive)	> 100 µM (inactive)	> 100 µM (inactive)	> 100 µM (inactive)	> 100 µM (inactive)	98.6 µM (inactive)	–
CN(C)c1c(Cl)c(=O)oc2c1ccc1nc(-c3ccccc3)sc12	> 100 µM (inactive)	> 100 µM (inactive)	> 100 µM (inactive)	> 100 µM (inactive)	> 100 µM (inactive)	> 100 µM (inactive)	> 100 µM (inactive)	> 100 µM (inactive)	98.9 µM (inactive)	57.7 µM (inactive)	> 100 µM (inactive)	> 100 µM (inactive)	> 100 µM (inactive)	> 100 µM (inactive)	–	> 100 µM (inactive)	> 100 µM (inactive)	> 100 µM (inactive)	–	> 100 µM (inactive)
COc1ccc(/C=C(/C#N)C(N)=O)c(OC)c1	> 100 µM (inactive)	89.5 µM (inactive)	> 100 µM (inactive)	82.8 µM (inactive)	> 100 µM (inactive)	> 100 µM (inactive)	> 100 µM (inactive)	79.3 µM (inactive)	> 100 µM (inactive)	44 µM (inactive)	> 100 µM (inactive)	> 100 µM (inactive)	> 100 µM (inactive)	> 100 µM (inactive)	> 100 µM (inactive)	> 100 µM (inactive)	36.4 µM (inactive)	41.3 µM (inactive)	72.1 µM (inactive)	–
COc1ccc(/C=C2\N=C(c3ccccc3)OC2=O)cc1OC(C)=O	48.9 µM (inactive)	> 100 µM (inactive)	> 100 µM (inactive)	–	> 100 µM (inactive)	> 100 µM (inactive)	–	51.4 µM (inactive)	94.2 µM (inactive)	53.2 µM (inactive)	39.8 µM (inactive)	56 µM (inactive)	–	63.1 µM (inactive)	> 100 µM (inactive)	0.615 µM (active)	54.1 µM (inactive)	99.8 µM (inactive)	52.5 µM (inactive)	93.5 µM (inactive)
CCOC(=O)c1nc2ccc(C(F)(F)F)cc2nc1Nc1ccc(F)cc1	> 100 µM (inactive)	> 100 µM (inactive)	> 100 µM (inactive)	49.2 µM (inactive)	> 100 µM (inactive)	92.3 µM (inactive)	> 100 µM (inactive)	> 100 µM (inactive)	58.9 µM (inactive)	> 100 µM (inactive)	–	45.3 µM (inactive)	> 100 µM (inactive)	> 100 µM (inactive)	> 100 µM (inactive)	> 100 µM (inactive)	19 µM (inactive)	> 100 µM (inactive)	32.1 µM (inactive)	–
CCCCCCC(C)CC(CCCCCC)NCCOC(=O)c1ccc([N+](=O)[O-])cc1 (stereo unspecified)	–	9.46 µM (inactive)	12.6 µM (inactive)	11.7 µM (inactive)	15.6 µM (inactive)	12 µM (inactive)	–	13.6 µM (inactive)	16.3 µM (inactive)	14.1 µM (inactive)	13.4 µM (inactive)	14.9 µM (inactive)	14.1 µM (inactive)	11.7 µM (inactive)	16.3 µM (inactive)	–	10.1 µM (inactive)	–	14.4 µM (inactive)	3.72 µM (inactive)
COc1cc(C2SCC(=O)N2c2cccc(Cl)c2)cc(OC)c1OC (stereo unspecified)	–	> 100 µM (inactive)	> 100 µM (inactive)	43.7 µM (inactive)	63.7 µM (inactive)	> 100 µM (inactive)	55.7 µM (inactive)	> 100 µM (inactive)	–	46.8 µM (inactive)	> 100 µM (inactive)	51.6 µM (inactive)	47.8 µM (inactive)	54.6 µM (inactive)	> 100 µM (inactive)	37.2 µM (inactive)	31.2 µM (inactive)	84.9 µM (inactive)	–	> 100 µM (inactive)
Cc1ccc(S(=O)(=O)NCCCSCCO)cc1	31.6 µM (inactive)	44.1 µM (inactive)	> 100 µM (inactive)	> 100 µM (inactive)	> 100 µM (inactive)	90.8 µM (inactive)	–	89.7 µM (inactive)	–	32.8 µM (inactive)	8.26 µM (inactive)	–	20.6 µM (inactive)	96.8 µM (inactive)	> 100 µM (inactive)	56.5 µM (inactive)	36.4 µM (inactive)	28.6 µM (inactive)	33.1 µM (inactive)	> 100 µM (inactive)
C(CCCCc1nnc(N2CCOCC2)o1)CCCc1nnc(N2CCOCC2)o1	> 100 µM (inactive)	> 100 µM (inactive)	> 100 µM (inactive)	> 100 µM (inactive)	> 100 µM (inactive)	> 100 µM (inactive)	> 100 µM (inactive)	> 100 µM (inactive)	> 100 µM (inactive)	> 100 µM (inactive)	> 100 µM (inactive)	> 100 µM (inactive)	> 100 µM (inactive)	> 100 µM (inactive)	> 100 µM (inactive)	> 100 µM (inactive)	> 100 µM (inactive)	> 100 µM (inactive)	> 100 µM (inactive)	–
Oc1ccc(-c2nc(-c3cccnc3)c(-c3ccc(Cl)cc3)[nH]2)cc1	12.5 µM (inactive)	16.1 µM (inactive)	16 µM (inactive)	14 µM (inactive)	14.3 µM (inactive)	13.3 µM (inactive)	17.9 µM (inactive)	14.6 µM (inactive)	16.9 µM (inactive)	11.3 µM (inactive)	14.3 µM (inactive)	13.6 µM (inactive)	11.9 µM (inactive)	11.2 µM (inactive)	13.6 µM (inactive)	2.52 µM (inactive)	–	13.1 µM (inactive)	7.46 µM (inactive)	18.8 µM (inactive)
COc1cc2oc(-c3ccc(O)cc3O)c(CC=C(C)C)c(=O)c2c(O)c1/C=C/C(C)C [ARTOCARPIN]	2.08 µM (inactive)	6.31 µM (inactive)	5.85 µM (inactive)	3.48 µM (inactive)	4.26 µM (inactive)	4.85 µM (inactive)	–	2.33 µM (inactive)	2.42 µM (inactive)	2.88 µM (inactive)	2.56 µM (inactive)	2.14 µM (inactive)	3.1 µM (inactive)	2.61 µM (inactive)	7.21 µM (inactive)	2.33 µM (inactive)	3.08 µM (inactive)	1.77 µM (inactive)	3.04 µM (inactive)	2.46 µM (inactive)
C[C@@H](Oc1ccc(Oc2cnc3ccc(Cl)cc3n2)cc1)C(=O)O [R(+)XK469]	95.7 µM (inactive)	> 100 µM (inactive)	> 100 µM (inactive)	> 100 µM (inactive)	> 100 µM (inactive)	> 100 µM (inactive)	> 100 µM (inactive)	85.3 µM (inactive)	72.8 µM (inactive)	39 µM (inactive)	> 100 µM (inactive)	> 100 µM (inactive)	76.6 µM (inactive)	> 100 µM (inactive)	> 100 µM (inactive)	> 100 µM (inactive)	> 100 µM (inactive)	> 100 µM (inactive)	> 100 µM (inactive)	–
COc1cc(O)c2c(=O)c(O)c(-c3ccc(O)c(O)c3)oc2c1 [RHAMNETIN]	3.9 µM (inactive)	13 µM (inactive)	6.76 µM (inactive)	21.2 µM (inactive)	4.13 µM (inactive)	21.4 µM (inactive)	1.09 µM (active)	10.8 µM (inactive)	14.6 µM (inactive)	17.8 µM (inactive)	4.86 µM (inactive)	–	–	0.403 µM (active)	20 µM (inactive)	6.95 µM (inactive)	10.5 µM (inactive)	5.15 µM (inactive)	–	14 µM (inactive)
